Common to all, as to type: cell-based, human
One test concerns T98G glioblastoma cells. As to the kind of experiment: Apoptosis assay by sub-G0/G1 fraction estimation (apoptotic nuclear fragmentation, PI staining, FACS). The settings on record: for sensitization to STS mediated apoptosis: siRNA or chemical PP2A activator followed by STS 24 hrs; for level of apoptosis in PME-1 depleted cells: PME-1 siRNA 48 hrs, then drug 24 hrs; for Potentiation % (apoptotic nuclear fragmentation): T98G transfected with PME-1 specific dsRNA; for reversal of PME-1 siRNA and STS mediated apoptosis: agent added to, or siRNA co-transfected with, PME-1 siRNA plus STS. As to the method: The percentage of the sub-G0/G1 fraction containing fragmented nuclei stained with Propidium iodide (P1) was taken as a measure of apoptotic cells. 3.5-4×10^4 cells were plated in 24-well plates, transfected with siRNA for 48 hrs, and then treated with indicated concentration of test compounds in fresh media. After 24 hrs of treatment, both floating and adherent cells were harvested by centrifugation. Cell pellets were resuspended in 400 μl of hypotonic PI buffer, containing 40 mM Tri-sodium citrate (Merck), 0.3% Triton X-100 (Sigma-Aldrich) and 50 μg/ml Propidium iodide (Sigma-Aldrich) in PBS, and incubated at room temperature for 10 minutes in dark. The flow cytometric analysis of PI stained nuclei was performed and the recorded data was analyzed using a FACScan flow cytometer and software (Becton Dickinson) respectively.
In experiments using pan-caspase inhibitor, cells were kept in growth media containing 30 μM Z-VAD-FMK starting from 18 hrs after transfection till the PI staining. For treatment with PP2A activators FTY720, Sodium Selenate and Xylulose-5-phosphate, cells were kept in respective drugs throughout the experiment starting from 24 hrs after transfection. PP2A inhibitor, Okadaic acid, treatment was given for 24 hrs after 24 hrs of transfection.
The T98G cells transfected with siRNA for 48 hrs were given drug treatments for 24 hrs and were subsequently lysed, and their nuclei were stained using hypotonic propidium iodide buffer. The lysates were analysed for changes in the sub-G0/G1 fraction of fragmented nuclei by flow cytometry (FACS) (FIG. 1B). Condensation and fragmentation of nucleus is a key biochemical feature of apoptosis and sub-G0/G1 analysis has been widely used for detection of apoptosis (FEBS Lett., 1986, 194(2):347-50; Cytometry, 1991, 12(4):323-329; Nature Protocols, 2006, 1:1458-1461).

The next test relates to U87MG glioblastoma cells. Description: Colony formation assay, U87MG. The settings on record: scrambled or PME-1 siRNA, then drug 2 days; FIG. 5D. From the text:
(§1) Cells plated in very low density (4-6×10^3) in 6-well plates were allowed to grow for about 7 days until they form small colonies. These cells were then transfected with Scrambled or PME-1 siRNA using Lipofectamine RNAiMAX reagent (Invitrogen) according to the manufacturer's instructions. After 48 hrs, treatments were given with indicated concentration of chemical drugs for another 48 hrs. Cell colonies were washed with PBS, fixed with 3.7% formaldehyde and stained with 0.2% crystal violet solution (made in 10% ethanol) for 15 minutes at room temperature each. Excess stain was removed by repeated washings with PBS. Plates were dried and pictures were taken with Olympus SP-600UZ camera or Epson perfection V700 scanner and analysed with ImageJ.

For test [1], the system named is U251MG glioblastoma cells. As to the kind of experiment: Colony formation assay, U251MG. The settings on record: scrambled or PME-1 siRNA, then drug 2 days; FIG. 5C.
Excerpt: as §1

*: point of attachment. Cbz = O=C(OCc1ccccc1)*; CH2F = FC*

Regarding `O=C(CO)[C@@H](O)[C@H](O)COP(=O)(O)O` [Xylulose-5-phosphate], the “sensitization to STS mediated apoptosis” value in the test with T98G glioblastoma cells (T98G) is on record as “None of these chemical PP2A activators were able to sensitize”.

On to `CC1CNCCN1S(=O)(=O)c1cccc2cnccc12` (stereo not drawn) [H7], for which the “level of apoptosis in PME-1 depleted cells” value (“level of apoptosis” for short) in the test with T98G glioblastoma cells (T98G) is recorded as “moderate levels of apoptosis”.

`O=C1NC(=O)c2c1c1c3ccccc3n3c1c1c2c2ccccc2n1C1CCC3O1` [SB-218078, 9,10,11,12-Tetrahydro-9,12-epoxy-1H-diindolo [1,2,3-fg:3′,2′,1′-kl] pyrrolo[3,4-i][1,6] benzodiazocine-1,3(2H)-dione]: the “Potentiation % (apoptotic nuclear fragmentation)” value (shortened to “Potentiation %”) with T98G glioblastoma cells (50 nM drug) is on record as 2-5%; with T98G glioblastoma cells (5 μM drug), 25-30%. Moreover, the “level of apoptosis” value in the test with T98G glioblastoma cells (T98G) is listed as “moderate levels of apoptosis”.

In the case of `C[C@]12O[C@H](C[C@]1(O)CO)n1c3ccccc3c3c4c(c5c6ccccc6n2c5c31)CNC4=O` [CEP-701, (9S,10S,12R)-2,3,9,10,11,12-Hexahydro-10-hydroxy-10-(hydroxymethyl)-9-methyl-9,12-epoxy-1H-diindolo[1,2,3-fg:3′,2′,1′-kl] pyrrolo[3,4-i][1, 6]benzodiazocin-1-one], the “Potentiation %” value with T98G glioblastoma cells (50 nM drug) is 2-5%; in the test with T98G glioblastoma cells (5 μM drug), 75-80%. Moreover, the “level of apoptosis” value in the test on T98G glioblastoma cells (T98G) is reported as “levels even higher than STS itself”.

On to `Cn1c2ccccc2c2c3c(c4c5ccccc5n(CCC#N)c4c21)CNC3=O` [GÖ-6976, 12-(2-Cyanoethyl)-6,7,12,13-tetrahydro-13-methyl-5-oxo-5H-indolo[2,3-a]pyrrolo[3,4-c]carbazole], for which the “Potentiation %” value in the test with T98G glioblastoma cells (5 μM drug) is 15-20%.

As for `CN[C@@H]1C[C@H]2O[C@@](C)([C@@H]1OC)n1c3ccccc3c3c4c(c5c6ccccc6n2c5c31)C(=O)N[C@@H]4O` [UCN-01, (9S)-2,3,10,11,12,13-Hexahydro-3α-hydroxy-10α-methoxy-9-methyl-11α-methyl amino-9β,13β-epoxy-1H,9H-diindolo [1,2,3-gh:3′,2′,1′-lm] pyrrolo[3,4-j][1,7] benzodiazonin-1-one], the “Potentiation %” value was 5-10% with T98G glioblastoma cells (50 nM drug) and 80-90% in the test with T98G glioblastoma cells (5 μM drug). Also, the “level of apoptosis” value in the test with T98G glioblastoma cells (T98G) is on record as “levels even higher than STS itself”.

With `O=C1NC(=O)c2c1c1c3ccccc3[nH]c1c1[nH]c3ccccc3c21` [Arcyriaflavin A, 12,13-Dihydro-5H-indolo[2,3-a] pyrrolo[3,4-c] carbazole-5,7(6H)-dione], the “Potentiation %” value with T98G glioblastoma cells (5 μM drug) was 5-10%.

For `COC(=O)[C@@]1(O)C[C@H]2O[C@]1(C)n1c3ccccc3c3c4c(c5c6ccccc6n2c5c31)C(=O)NC4` [K252a, (9S,10R,12R)-2,3,9,10,11,12-Hexahydro-10-hydroxy-9-methyl-1-oxo-9,12-epoxy-1H-diindolo[1,2,3-fg:3′,2′,1′kl] pyrrolo[3,4-i][1,6] benzodiazocine-10-carboxylic acid methyl ester], the “cell killing activity with PME-1 depletion (colony formation)” value (in the test on U87MG glioblastoma cells; in test [1]) was “enhanced the cell killing activity” throughout. For the same molecule, the results for the “Potentiation %” value with T98G glioblastoma cells (500 nM drug) and with T98G glioblastoma cells (5 μM drug) were 10-15% and 80-90%, respectively. In the test with T98G glioblastoma cells (T98G), the “level of apoptosis” value is “levels even higher than STS itself”.

Take Cbz-Val-Ala-Asp-CH2F: the “reversal of PME-1 siRNA and STS mediated apoptosis” value in the test with T98G glioblastoma cells (T98G) is reported as “complete reversal”.

In the case of `Cn1cc(C2=C(c3cn(C4CCN(Cc5ccccn5)CC4)c4ccccc34)C(=O)NC2=O)c2ccccc21` [Enzastaurin, 3-(1-Methyl-1H-indol-3-yl)-4-(1-(1-(2-pyridinylmethyl)-4-piperidinyl)-1H-indol-3-yl)-1H-pyrrole-2,5-dione], the “Potentiation %” value in the test on T98G glioblastoma cells (5 μM drug) is 15-20%.

`CCCCCCCCc1ccc(CCC(N)(CO)CO)cc1` [FTY720]: the “sensitization to STS mediated apoptosis” value with T98G glioblastoma cells (T98G) was “None of these chemical PP2A activators were able to sensitize”.

As for `O=C1NCc2c1c1c3ccccc3[nH]c1c1[nH]c3ccccc3c21` [K252c, 6,7,12,13-Tetrahydro-5H-indolo[2,3-a]pyrrolo[3,4-c] carbazol-5-one], the “Potentiation %” value with T98G glioblastoma cells (5 μM drug) is recorded as 15-20%.

`COC1C(CO)OC(n2c3c(Cl)cccc3c3c4c(c5c6cccc(Cl)c6[nH]c5c32)C(=O)NC4=O)C(O)C1O` (stereo not drawn) [Rebeccamycin, 5h-indolo(2,3-a)pyrrolo(3,4-c)carbazole-5,7(6h)-dione,1,11-dichloro-12,13-dihy;dro-12-(4-o-methyl-beta-d-glucopyranosyl)]: the “Potentiation %” value with T98G glioblastoma cells (5 μM drug) was 5-10%.

Consider TRAIL, for which the “synergistic effect of PME-1 depletion / benefit of combination with PME-1 siRNA” value in the test with T98G glioblastoma cells (PME-1 siRNA versus scrambled siRNA, T98G) is “did not show the same trend”.

Consider `CO[C@@H]1[C@H](N(C)C(=O)c2ccccc2)C[C@H]2O[C@]1(C)n1c3ccccc3c3c4c(c5c6ccccc6n2c5c31)C(=O)NC4` [PKC412, [9S-(9α,10β,11β, 13α)]-N-(2,3,10, 11,12,13-Hexahydro-10-methoxy-9-methyl-1-oxo-9,13-epoxy-1 H,9H-diindolo [1,2,3-gh:3′,2′,1′-lm]pyrrolo[3,4-j][1,7]benzodiazonin-11-yl)-N-methyl benzamide], for which the “cell killing activity with PME-1 depletion (colony formation)” value (in the test on U87MG glioblastoma cells; in test [1]) was “enhanced the cell killing activity” in each case. Besides, the entries for the “Potentiation %” value with T98G glioblastoma cells (500 nM drug) and in the test on T98G glioblastoma cells (5 μM drug) were 5-10% and 75-80%, respectively. In the test on T98G glioblastoma cells (T98G), the “level of apoptosis” value is on record as “levels even higher than STS itself”.

With `C=C1[C@@H](O)[C@@H]2O[C@]3(CC[C@H](/C=C/[C@@H](C)[C@@H]4CC(C)=C[C@@]5(O[C@H](C[C@@](C)(O)C(=O)O)CC[C@H]5O)O4)O3)CC[C@H]2O[C@@H]1[C@@H](O)C[C@H](C)[C@H]1O[C@@]2(CCCCO2)CC[C@H]1C` [OA, okadaic acid], in the test on T98G glioblastoma cells (T98G), the “reversal of PME-1 siRNA and STS mediated apoptosis” value is listed as “sufficient to rescue cells”.

Consider `Cn1cc(C2=C(c3cn(CCCSC(=N)N)c4ccccc34)C(=O)NC2=O)c2ccccc21` [RO-31-8220], for which, in the test with T98G glioblastoma cells (5 μM drug), the “Potentiation %” value is recorded as 5-10%. The “level of apoptosis” value in the test on T98G glioblastoma cells (T98G) is reported as “not active”.

For the molecule Sodium selenate, the “sensitization to STS mediated apoptosis” value in the test on T98G glioblastoma cells (T98G) was “None of these chemical PP2A activators were able to sensitize”.
